Measured values published in ChEMBL document CHEMBL4130475, “Lorneic Acid Analogues from an Endophytic Actinomycete” (J Nat Prod, 2017).
One block for each compound: values may come before it.

Experiments:
[1] = molecular target: T1, Tyrosinase (Agaricus bisporus) (UniProt O42713); assay: Inhibition of mushroom tyrosinase at 0.19 mM using L-DOPA as substrate after 5 mins by spectrophotometric analysis relative to control
T1 sequence (whole entry): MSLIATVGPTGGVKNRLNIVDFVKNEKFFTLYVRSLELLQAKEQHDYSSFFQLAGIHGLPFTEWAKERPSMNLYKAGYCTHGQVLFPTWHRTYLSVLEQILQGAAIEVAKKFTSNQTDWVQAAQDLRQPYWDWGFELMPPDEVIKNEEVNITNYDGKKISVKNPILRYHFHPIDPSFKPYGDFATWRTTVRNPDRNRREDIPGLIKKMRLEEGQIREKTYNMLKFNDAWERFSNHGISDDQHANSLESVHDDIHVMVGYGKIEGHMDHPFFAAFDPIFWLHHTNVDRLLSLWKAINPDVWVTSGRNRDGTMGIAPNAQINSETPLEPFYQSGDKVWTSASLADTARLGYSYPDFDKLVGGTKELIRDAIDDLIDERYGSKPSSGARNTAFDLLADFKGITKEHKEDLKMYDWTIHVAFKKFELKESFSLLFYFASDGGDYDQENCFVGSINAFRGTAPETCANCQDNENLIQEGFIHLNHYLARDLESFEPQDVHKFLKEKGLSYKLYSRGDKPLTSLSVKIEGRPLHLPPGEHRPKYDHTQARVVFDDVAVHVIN

[2] = molecular target: T1, Tyrosinase (Agaricus bisporus); assay: Inhibition of mushroom tyrosinase at 0.11 mM using L-DOPA as substrate after 5 mins by spectrophotometric analysis relative to control
[3] = molecular target: T1, Tyrosinase (Agaricus bisporus); assay: Inhibition of mushroom tyrosinase at 0.18 mM using L-DOPA as substrate after 5 mins by spectrophotometric analysis relative to control

inhibition [1]: 12.9%
SMILES: CC/C=C/c1cc(C)ccc1/C=C/CCCC(=O)O

inhibition [2]: 18.9%
SMILES: CCCC(SSCC(NC(C)=O)C(=O)O)c1cc(C)ccc1/C=C/CCCC(=O)O (stereo not drawn)

inhibition [3]: 27%
SMILES: CCCC(O)c1cc(C)ccc1/C=C/CCCC(=O)O (stereo not drawn)
